Legend:
Trypanosoma cruzi [1] = experiment: Antitrypanosomal activity against metacyclic form of Trypanosoma cruzi SN3 infected in African green monkey Vero cells after 72 hrs by Giemsa staining; type: functional, organism-based
[2] = Selectivity index, ratio of IC50 for African green monkey Vero cells to IC50 for metacyclic form of Trypanosoma cruzi SN3; type: toxicity, cell-based; details: read-out: Ratio IC50
Leishmania donovani [3] = experiment: Antileishmanial activity against axenic amastigotes of Leishmania donovani MHOM/SD/1962/1S-Cl2d infected in human THP1 cells assessed as parasite growth inhibition at 50 uM after 24 hrs by AlamarBlue viability assay; type: functional; details: read-out: GI
Leishmania donovani [4] = experiment: Antileishmanial activity against axenic amastigotes of Leishmania donovani MHOM/SD/1962/1S-Cl2d infected in human THP1 cells assessed as parasite growth inhibition at 15 uM after 24 hrs by AlamarBlue viability assay; type: functional; details: read-out: GI
Leishmania donovani [5] = experiment: Antileishmanial activity against axenic amastigotes of Leishmania donovani MHOM/SD/1962/1S-Cl2d […] assessed as parasite growth inhibition after 24 hrs by AlamarBlue viability assay; type: functional, organism-based
[6] = Cytotoxicity against human THP1 cells after 48 hrs by AlamarBlue viability assay; type: cell-based; details: THP-1, 48 h
[7] = Selectivity index, ratio of IC50 for human THP1 cells to IC50 for axenic amastigotes of Leishmania donovani MHOM/SD/1962/1S-Cl2d infected in human THP1 cells; type: toxicity, cell-based, THP-1; details: read-out: Ratio IC50
Trypanosoma cruzi [8] = experiment: Antitrypanosomal activity against trypomastigote form of Trypanosoma cruzi Tulahuen C2C4 expressing LacZ gene infected in rat L6 cells after 96 hrs by photometric method; type: functional, organism-based; details: Tulahuen C2C4, L6, 96 h
L6 = experiment: Cytotoxicity against rat L6 cells after 72 hrs by AlamarBlue dye based fluorimetric method; type: cell-based; details: L6, 72 h
[9] = Selectivity index, ratio of IC50 for rat L6 cells to IC50 for Trypanosoma cruzi Tulahuen C2C4 amastigotes; type: toxicity, cell-based; details: read-out: Ratio IC50
Leishmania donovani [10] = experiment: Antileishmanial activity against axenic amastigotes of Leishmania donovani MHOM/SD/1962/1S-Cl2d infected in human macrophages at 5 uM; type: functional
Leishmania donovani [11] = experiment: Selectivity for axenic amastigotes of Leishmania donovani MHOM/SD/1962/1S-Cl2d infected in human macrophages over axenic amastigotes of Leishmania donovani MHOM/SD/1962/1S-Cl2d infected in human THP1 cells; type: functional, THP-1
Trypanosoma cruzi [12] = experiment: Potency index, ratio of IC50 for benznidazole to IC50 for test compound against trypomastigote form of Trypanosoma cruzi Tulahuen C2C4 expressing LacZ gene infected in rat L6 cells; type: functional
Trypanosoma cruzi [13] = experiment: Antitrypanosomal activity against intracellular form of Trypanosoma cruzi; type: functional, organism-based
Leishmania donovani [14] = experiment: Antileishmanial activity against amastigotes of Leishmania donovani MHOM/SD/1962/1S-Cl2d infected in human THP1 cells assessed as parasite growth inhibition at 1 uM after 24 hrs by AlamarBlue viability assay; details: THP-1, 24 h

| SMILES | inhibition of growth at 50 µM (Leishmania donovani [3]) [%] | inhibition of growth at 15 µM (Leishmania donovani [4]) [%] | IC50 (Leishmania donovani [5]) [µM] | IC50 [6] [µM] | selectivity ratio [7] | other results |
| --- | --- | --- | --- | --- | --- | --- |
| COC(=O)[C@]1(C)CCC[C@]2(C)C3=C(CC[C@@H]12)C(=O)C(C(C)C)=CC3=O | – | – | – | – | – | IC50 (Trypanosoma cruzi [1]): 17.3 µM; selectivity ratio [2]: 45 |
| CC(C)c1ccc2c(c1)CC[C@H]1[C@](C)(CNC(=O)CCC(=O)O)CCC[C@]21C | 98.1 | 55 | – | – | – | – |
| C#CC(=O)NC[C@]1(C)CCC[C@]2(C)c3ccc(C(C)C)cc3CC[C@@H]12 | 99.8 | 98.1 | 4.1 | < 3 | < 1 | – |
| CC(C)c1ccc2c(c1)CC[C@H]1[C@](C)(CNC(=O)/C=C/c3ccc([N+](=O)[O-])cc3)CCC[C@]21C | 42.7 | – | – | – | – | – |
| CC(C)c1ccc2c(c1)CC[C@H]1[C@](C)(CNC(=O)/C=C/c3ccccc3)CCC[C@]21C | 42.4 | – | – | – | – | – |
| CC(C)c1ccc2c(c1)CC[C@H]1[C@](C)(CNC(=O)c3ccccc3C(=O)O)CCC[C@]21C | 98.5 | 34.9 | – | – | – | – |
| CC(=O)NC[C@]1(C)CCC[C@]2(C)c3ccc(C(C)C)cc3CC[C@@H]12 | 98.5 | 96 | 2.4 | 33.3 | 14 | IC50 (Trypanosoma cruzi [8]): 3.7 µM; IC50 (L6): 24.3 µM; selectivity ratio [9]: 6 |
| CCCC(=O)NC[C@]1(C)CCC[C@]2(C)c3ccc(C(C)C)cc3CC[C@@H]12 | 96.6 | 73.2 | 5.1 | 56.3 | 11 | – |
| C=CC(=O)NC[C@]1(C)CCC[C@]2(C)c3ccc(C(C)C)cc3CC[C@@H]12 | 99.8 | 99.6 | 0.37 | 23.2 | 63 | inhibition at 5 µM (Leishmania donovani [10]): 94.7%; selectivity ratio (Leishmania donovani [11]): 6; IC50 (Trypanosoma cruzi [8]): 0.6 µM; IC50 (L6): 36.7 µM; selectivity ratio [9]: 58; Ratio IC50 (Trypanosoma cruzi [12]): 3.5 |
| CC(C)c1ccc2c(c1)CC[C@H]1[C@](C)(CNC(=O)c3nccnc3C(=O)O)CCC[C@]21C | 9.4 | – | – | – | – | – |
| CC(C)c1ccc2c(c1)CC[C@H]1[C@](C)(CNC(=O)c3ccc[nH]3)CCC[C@]21C | 99.1 | 90.6 | 3.2 | 33.3 | 10 | – |
| CC(C)c1ccc2c(c1)CC[C@H]1[C@](C)(CNC(=O)c3ccccc3)CCC[C@]21C | 95.7 | 56.3 | – | – | – | – |
| CC(C)c1ccc2c(c1)CC[C@H]1[C@](C)(CNC(=O)/C=C\C(=O)O)CCC[C@]21C | 98.8 | 90.7 | 1.9 | 145 | 76 | inhibition at 5 µM (Leishmania donovani [10]): 34.7%; IC50 (Trypanosoma cruzi [8]): 9.5 µM; IC50 (L6): 33.5 µM; selectivity ratio [9]: 4 |
| CC(C)c1ccc2c(c1)CC[C@H]1[C@](C)(CN)CCC[C@]21C | 68.7 | – | – | – | – | IC50 (Trypanosoma cruzi [8]): 7.4 µM; IC50 (L6): 6.5 µM; selectivity ratio [9]: 1 |
| CC(C)c1cc2c(c(O)c1O)[C@@]1(C)CCCC(C)(C)C1=C(O)C2=O [14-DEOXYCOLEON U] | – | – | – | – | – | IC50 (Trypanosoma cruzi [13]): 25.7 µM |
| C[C@@H]1[C@H](O)[C@@H](C)/C=C/C=C/C=C/C=C/C=C/C=C/C=C/[C@H](O[C@@H]2O[C@H](C)[C@@H](O)[C@H](N)[C@@H]2O)C[C@@H]2O[C@](O)(C[C@@H](O)C[C@@H](O)[C@H](O)CC[C@@H](O)C[C@@H](O)CC(=O)O[C@H]1C)C[C@H](O)[C@H]2C(=O)O [AMPHOTERICIN B] | – | – | – | – | – | inhibition at 1 µM (Leishmania donovani [14]): > 90% |
